For four compounds, carcinogen call results are on record in PubChem BioAssay AID1259411 (Chemical Carcinogenesis Research Information System (CCRIS), 2018).

The data set relates to rodent carcinogenicity bioassays, tumor incidence. As to the kind of experiment: CCRIS carcinogenicity studies. Summed up: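 NCI-built, expert-reviewed records of carcinogenicity and related test outcomes (mutagenicity, tumor promotion/inhibition) compiled from published and report sources, historical span 1985-2011, not updated.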

The source made the active and inactive calls. No rule for the calls is given here.

As to `O=C1c2ccccc2CN2C(=O)c3ccccc3CN12`, the carcinogen call is “active; positive” (Species: MOUSE, Strain/Sex: BALB/FEMALE, Route: ORAL, Dose: 0, 300, 600, 1200 PPM IN DIET FOR 80 WK (STUDY DURATION: 120 WK), Dose: 0, 300, 600, 1200 PPM IN DIET FOR 80 WK (STUDY DURATION: 120 WK), Tumor Site: Type of Lesion: LIVER: HEPATOCELLULAR ADENOMA OR CARCINOMA, ANGIOSARCOMA) and “active; positive” (Species: MOUSE, Strain/Sex: BALB/MALE, Route: ORAL, Dose: 0, 300, 600, 1200 PPM IN DIET FOR 80 WK (STUDY DURATION: 120 WK), Dose: 0, 300, 600, 1200 PPM IN DIET FOR 80 WK (STUDY DURATION: 120 WK), Tumor Site: Type of Lesion: LIVER: ANGIOMA, ANGIOSARCOMA).
For `C[C@]12CC[C@@H]3C4=C(CC[C@H]3[C@@H]1CCC2=O)C(=O)C(=O)C=C4`, the carcinogen call (Species: RAT, Strain/Sex: STRAIN-CD/FEMALE, Route: INJECTION, Dose: 0, 30 UMOL (TOTAL DOSE) 1/6 INJECTED UNDER EACH OF 3 THORACIC AND 3 INGUINAL NIPPLES ONCE (STUDY DURATION: 44 WK)) was “inactive; negative”.
On to `ClCCCl`, for which the carcinogen call was “active; positive” (Species: MOUSE, Strain/Sex: B6C3F1/FEMALE, Route: GAVAGE, Dose: 0, 149, 299 MG/KG TWA,5 D/WK FOR 78 WK (STUDY DURATION: 91 WK), Dose: 0, 149, 299 MG/KG TWA,5 D/WK FOR 78 WK (STUDY DURATION: 91 WK), Tumor Site: Type of Lesion: LUNG: ALVEOLAR/BRONCHIOLAR ADENOMA, UTERUS (ENDOMETRIUM): STROMAL POLYP, STROMAL SARCOMA, MAMMARY GLAND: ADENOCARCINOMA, Tumor Site: Type of Lesion: LUNG: ALVEOLAR/BRONCHIOLAR ADENOMA, UTERUS (ENDOMETRIUM): STROMAL POLYP, STROMAL SARCOMA, MAMMARY GLAND: ADENOCARCINOMA); “active; positive” (Species: MOUSE, Strain/Sex: B6C3F1/MALE, Route: GAVAGE, Dose: 0, 97, 195 MG/KG TWA, 5 D/WK FOR 78 WK (STUDY DURATION: 90-91 WK), Dose: 0, 97, 195 MG/KG TWA, 5 D/WK FOR 78 WK (STUDY DURATION: 90-91 WK), Tumor Site: Type of Lesion: LUNG: ALVEOLAR/BRONCHIOLAR ADENOMA); “active; positive” (Species: MOUSE, Strain/Sex: EU-PIM-1/FEMALE, Route: GAVAGE, Dose: 0, 100, 300 MG/KG 1/D FOR 40 WK (STUDY DURATION: 40 WK), Dose: 0, 100, 300 MG/KG 1/D FOR 40 WK (STUDY DURATION: 40 WK), Tumor Site: Type of Lesion: LYMPHATIC SYSTEM: LYMPHOMA); “inactive; negative” (Species: MOUSE, Strain/Sex: EU-PIM-1/MALE, Route: GAVAGE, Dose: 0, 100, 300 MG/KG 1/D FOR 40 WK (STUDY DURATION: 40 WK), Dose: 0, 100, 300 MG/KG 1/D FOR 40 WK (STUDY DURATION: 40 WK)); “active; positive” (Species: MOUSE, Strain/Sex: ICR/FEMALE, Route: DERMAL, Dose: 42, 126 MG/APPL/MOUSE IN 0.2 ML ACETONE 3/WK, Tumor Site: Type of Lesion: LUNG: BENIGN PAPILLOMA); “active; positive” (Species: RAT, Strain/Sex: OSBORNE-MENDEL/FEMALE, Route: GAVAGE, Dose: 0, 47, 95 MG/KG TWA, 5 D/WK FOR 69 WK (STUDY DURATION: 93-110 WK), Dose: 0, 47, 95 MG/KG TWA, 5 D/WK FOR 69 WK (STUDY DURATION: 93-110 WK), Tumor Site: Type of Lesion: MAMMARY GLAND: ADENOCARCINOMA OR FIBROADENOMA). For the same compound, the carcinogen call (Species: RAT, Strain/Sex: OSBORNE-MENDEL/MALE, Route: GAVAGE, Dose: 0, 47, 95 MG/KG TWA, 5 D/WK FOR 69 WK (STUDY DURATION: 101-110 WK), Dose: 0, 47, 95 MG/KG TWA, 5 D/WK FOR 69 WK (STUDY DURATION: 101-110 WK), Tumor Site: Type of Lesion: INTEGUMENTARY SYSTEM (SUBCUTANEOUS TISSUE): FIBROMA, FORESTOMACH: SQUAMOUS CELL CARCINOMA, BLOOD VESSELS: HEMANGIOSARCOM, Tumor Site: Type of Lesion: INTEGUMENTARY SYSTEM (SUBCUTANEOUS TISSUE): FIBROMA, FORESTOMACH: SQUAMOUS CELL CARCINOMA, BLOOD VESSELS: HEMANGIOSARCOM) was “active; positive”; the carcinogen call (Species: RAT, Strain/Sex: SPRAGUE-DAWLEY/FEMALE, Route: INHALATION, Dose: 0, 5, 10, 50, 150, 250 PPM IN AIR 7 HR/D 5 D/WK FOR 78 WK (STUDY DURATION: LIFETIME), Dose: 0, 5, 10, 50, 150, 250 PPM IN AIR 7 HR/D 5 D/WK FOR 78 WK (STUDY DURATION: LIFETIME), Tumor Site: Type of Lesion: [BRAIN WAS ONLY SITE EVALUATED]) was “inactive; negative”; the carcinogen call (Species: RAT, Strain/Sex: SPRAGUE-DAWLEY/FEMALE, Route: INHALATION, Dose: 0, 50 PPM 7 HR/D 5 D/WK FOR 2 YR (STUDY DURATION: 2 YR)) is “inactive; negative”; the carcinogen call (Species: RAT, Strain/Sex: SPRAGUE-DAWLEY/MALE, Route: INHALATION, Dose: 0, 5, 10, 50, 150, 250 PPM IN AIR 7 HR/D 5 D/WK FOR 78 WK (STUDY DURATION: LIFETIME), Dose: 0, 5, 10, 50, 150, 250 PPM IN AIR 7 HR/D 5 D/WK FOR 78 WK (STUDY DURATION: LIFETIME), Tumor Site: Type of Lesion: [BRAIN WAS ONLY SITE EVALUATED]) was “inactive; negative”; the carcinogen call (Species: RAT, Strain/Sex: SPRAGUE-DAWLEY/MALE, Route: INHALATION, Dose: 0, 50 PPM 7 HR/D 5 D/WK FOR 2 YR (STUDY DURATION: 2 YR)) is “inactive; negative”.
Take `O=[N+]([O-])c1c2ccccc2cc2c3ccccc3c3ccccc3c12`: where the note is “Species: MOUSE, Strain/Sex: B6C3F1/MALE, Route: INTRAPERITONEAL, Dose: 0, 400 NMOL IN 35 µL DMSO ON DAYS 1 (1/7 TOTAL DOSE), 8 (2/7 TOTAL DOSE), AND 15 (4/7 TOTAL DOSE) AFTER BIRTH (STUDY DUR”, the carcinogen call is “inactive; negative”.
